Assays:
Assay type in all cases: in vivo
[1] = test system: wheat (Triticum aestivum); assay: Test A pre-/postemergence: wheat
Summary of the method: (§1)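 Compounds, formulated with surfactant in non-phytotoxic solvent, were applied as a directed soil spray preemergence and as postemergence sprays to 2–10 cm, one- to two-leaf seedlings grown in loam soil blended with sand; visual injury, 0–100, assessed ~10 days post-treatment against untreated controls.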

[2] = test system: rice (Oryza sativa); assay: Test C flooded paddy test: rice; details: scale 0 to 100 (0 no effect, 100 complete control)
Summary of the method: (§2)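 Plants at 2-leaf stage in pots flooded 3 cm above soil; compounds applied directly into the paddy water, depth maintained. Visual rating against controls after 13–15 days in greenhouse, scale 0 (no effect) to 100 (complete control).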

[3] = test system: morningglory (Ipomoea spp.); assay: Test A pre-/postemergence: morningglory
Summary of the method: as §1

[4] = test system: foxtail, giant (giant foxtail, Setaria faberii); assay: Test A pre-/postemergence: foxtail, giant
Summary of the method: as §1

[5] = test system: barnyardgrass (Echinochloa crus-galli); assay: Test C flooded paddy test: barnyardgrass; details: scale 0 to 100 (0 no effect, 100 complete control)
Summary of the method: as §2

[6] = test system: sedge, umbrella (small-flower umbrella sedge, Cyperus difformis); assay: Test C flooded paddy test: sedge, umbrella; details: scale 0 to 100 (0 no effect, 100 complete control)
Summary of the method: as §2

[7] = test system: pigweed (Amaranthus retroflexus); assay: Test A pre-/postemergence: pigweed
Summary of the method: as §1

[8] = test system: corn (Zea mays); assay: Test A pre-/postemergence: corn
Summary of the method: as §1

[9] = test system: ducksalad (Heteranthera limosa); assay: Test C flooded paddy test: ducksalad; details: scale 0 to 100 (0 no effect, 100 complete control)
Summary of the method: as §2

[10] = test system: crabgrass, large (large crabgrass, Digitaria sanguinalis); assay: Test A pre-/postemergence: crabgrass, large
Summary of the method: as §1

[11] = test system: velvetleaf (Abutilon theophrasti); assay: Test A pre-/postemergence: velvetleaf
Summary of the method: as §1

[12] = test system: barnyardgrass (Echinochloa crus-galli); assay: Test A pre-/postemergence: barnyardgrass
Summary of the method: as §1

[13] = Postemergence, 125 g ai/ha, 0 to 100 scale, 0 is no effect, 100 is complete control
[14] = Postemergence, 500 g ai/ha, visual rating on 0 to 100 scale (0 no effect, 100 complete control), approximately ten days
[15] = Preemergence, 125 g ai/ha, 0 to 100 scale where 0 is no effect and 100 is complete control
[16] = Preemergence, 500 g ai/ha, 0 to 100 scale (0 no effect, 100 complete control)
[17] = Flood (flooded paddy test), 125 g ai/ha, visual rating after 13 to 15 days
[18] = Flood (flooded paddy test), 250 g ai/ha, visual rating after 13 to 15 days
[19] = Postemergence, 1000 g ai/ha, visual rating on 0 to 100 scale (0 no effect, 100 complete control), approximately ten days
[20] = Preemergence, 1000 g ai/ha, 0 to 100 scale, 0 is no effect, 100 is complete control

Cc1nn(-c2ccc(C(F)(F)F)cc2)nc1Oc1cccc(OC(F)(F)F)c1 [Compound 119]
Wheat plant response rating [1, 13]: 0 | Wheat plant response rating [1, 14]: 10 | Plant response rating, Wheat [1, 15]: 0 | Plant response rating, Wheat [1, 16]: 0 | Plant response rating, Rice [2, 17]: 25 | Plant response rating, Rice [2, 18]: 25 | Plant response rating, Rice ([2]; Flood, 62 g ai/ha): 15 | Morningglory plant response rating [3, 13]: 20 | Morningglory plant response rating [3, 14]: 70 | Plant response rating, Morningglory [3, 15]: 0 | Plant response rating, Morningglory [3, 16]: 10 | Foxtail, Giant plant response rating [4, 13]: 20 | Foxtail, Giant plant response rating [4, 14]: 60 | Plant response rating, Foxtail, Giant [4, 15]: 50 | Plant response rating, Foxtail, Giant [4, 16]: 100 | Plant response rating, Barnyardgrass [5, 17]: 25 | Plant response rating, Barnyardgrass [5, 18]: 30 | Plant response rating, Barnyardgrass ([5]; Flood, 62 g ai/ha): 20 | Plant response rating, Sedge, Umbrella [6, 17]: 85 | Plant response rating, Sedge, Umbrella [6, 18]: 85 | Plant response rating, Sedge, Umbrella ([6]; Flood, 62 g ai/ha): 75 | Pigweed plant response rating [7, 13]: 70 | Pigweed plant response rating [7, 14]: 100 | Plant response rating, Pigweed [7, 15]: 60 | Plant response rating, Pigweed [7, 16]: 100 | Corn plant response rating [8, 13]: 10 | Corn plant response rating [8, 14]: 30 | Plant response rating, Corn [8, 15]: 0 | Plant response rating, Corn [8, 16]: 0 | Plant response rating, Ducksalad [9, 17]: 80 | Plant response rating, Ducksalad [9, 18]: 80 | Plant response rating, Ducksalad ([9]; Flood, 62 g ai/ha): 50 | Crabgrass, Large plant response rating [10, 13]: 40 | Crabgrass, Large plant response rating [10, 14]: 70 | Plant response rating, Crabgrass, Large [10, 15]: 70 | Plant response rating, Crabgrass, Large [10, 16]: 100 | Velvetleaf plant response rating [11, 13]: 20 | Velvetleaf plant response rating [11, 14]: 40 | Plant response rating, Velvetleaf [11, 15]: 0 | Plant response rating, Velvetleaf [11, 16]: 10 | Barnyardgrass plant response rating [12, 13]: 10 | Barnyardgrass plant response rating [12, 14]: 20 | Plant response rating, Barnyardgrass [12, 15]: 0 | Plant response rating, Barnyardgrass [12, 16]: 30

FC(F)(F)c1ccc(-n2nc(Br)c(Cc3cccc(C(F)(F)F)c3)n2)cc1 [Compound 123]
Wheat plant response rating [1, 19]: 20 | Wheat plant response rating [1, 20]: 0 | Plant response rating, Rice [2, 17]: 0 | Plant response rating, Rice [2, 18]: 10 | Plant response rating, Rice ([2]; Flood, 31 g ai/ha): 0 | Plant response rating, Rice ([2]; Flood, 62 g ai/ha): 0 | Morningglory plant response rating [3, 19]: 100 | Morningglory plant response rating [3, 20]: 0 | Foxtail, Giant plant response rating [4, 19]: 60 | Foxtail, Giant plant response rating [4, 20]: 80 | Plant response rating, Barnyardgrass [5, 17]: 0 | Plant response rating, Barnyardgrass [5, 18]: 0 | Plant response rating, Barnyardgrass ([5]; Flood, 31 g ai/ha): 0 | Plant response rating, Barnyardgrass ([5]; Flood, 62 g ai/ha): 0 | Plant response rating, Sedge, Umbrella [6, 17]: 50 | Plant response rating, Sedge, Umbrella [6, 18]: 75 | Plant response rating, Sedge, Umbrella ([6]; Flood, 31 g ai/ha): 0 | Plant response rating, Sedge, Umbrella ([6]; Flood, 62 g ai/ha): 0 | Pigweed plant response rating [7, 19]: 100 | Pigweed plant response rating [7, 20]: 80 | Corn plant response rating [8, 19]: 40 | Corn plant response rating [8, 20]: 0 | Plant response rating, Ducksalad [9, 17]: 75 | Plant response rating, Ducksalad [9, 18]: 75 | Plant response rating, Ducksalad ([9]; Flood, 31 g ai/ha): 0 | Plant response rating, Ducksalad ([9]; Flood, 62 g ai/ha): 40 | Crabgrass, Large plant response rating [10, 19]: 80 | Crabgrass, Large plant response rating [10, 20]: 60 | Velvetleaf plant response rating [11, 19]: 100 | Velvetleaf plant response rating [11, 20]: 10 | Barnyardgrass plant response rating [12, 19]: 10 | Barnyardgrass plant response rating [12, 20]: 10

Cc1nn(-c2ccc(F)cc2)nc1Oc1cc(C(F)(F)F)nn1C [Compound 126]
Wheat plant response rating [1, 13]: 10 | Wheat plant response rating [1, 14]: 20 | Plant response rating, Wheat [1, 15]: 0 | Plant response rating, Wheat [1, 16]: 0 | Plant response rating, Rice [2, 17]: 10 | Plant response rating, Rice [2, 18]: 20 | Plant response rating, Rice ([2]; Flood, 31 g ai/ha): 0 | Plant response rating, Rice ([2]; Flood, 62 g ai/ha): 0 | Morningglory plant response rating [3, 13]: 70 | Morningglory plant response rating [3, 14]: 80 | Plant response rating, Morningglory [3, 15]: 10 | Plant response rating, Morningglory [3, 16]: 30 | Foxtail, Giant plant response rating [4, 13]: 60 | Foxtail, Giant plant response rating [4, 14]: 90 | Plant response rating, Foxtail, Giant [4, 15]: 70 | Plant response rating, Foxtail, Giant [4, 16]: 90 | Plant response rating, Barnyardgrass [5, 17]: 30 | Plant response rating, Barnyardgrass [5, 18]: 40 | Plant response rating, Barnyardgrass ([5]; Flood, 31 g ai/ha): 0 | Plant response rating, Barnyardgrass ([5]; Flood, 62 g ai/ha): 0 | Plant response rating, Sedge, Umbrella [6, 17]: 75 | Plant response rating, Sedge, Umbrella [6, 18]: 80 | Plant response rating, Sedge, Umbrella ([6]; Flood, 31 g ai/ha): 30 | Plant response rating, Sedge, Umbrella ([6]; Flood, 62 g ai/ha): 40 | Pigweed plant response rating [7, 13]: 100 | Pigweed plant response rating [7, 14]: 100 | Plant response rating, Pigweed [7, 15]: 100 | Plant response rating, Pigweed [7, 16]: 100 | Corn plant response rating [8, 13]: 20 | Corn plant response rating [8, 14]: 30 | Plant response rating, Corn [8, 15]: 0 | Plant response rating, Corn [8, 16]: 20 | Plant response rating, Ducksalad [9, 17]: 20 | Plant response rating, Ducksalad [9, 18]: 65 | Plant response rating, Ducksalad ([9]; Flood, 31 g ai/ha): 0 | Plant response rating, Ducksalad ([9]; Flood, 62 g ai/ha): 0 | Crabgrass, Large plant response rating [10, 13]: 90 | Crabgrass, Large plant response rating [10, 14]: 90 | Plant response rating, Crabgrass, Large [10, 15]: 100 | Plant response rating, Crabgrass, Large [10, 16]: 100 | Velvetleaf plant response rating [11, 13]: 40 | Velvetleaf plant response rating [11, 14]: 80 | Plant response rating, Velvetleaf [11, 15]: 10 | Plant response rating, Velvetleaf [11, 16]: 40 | Barnyardgrass plant response rating [12, 13]: 20 | Barnyardgrass plant response rating [12, 14]: 70 | Plant response rating, Barnyardgrass [12, 15]: 70 | Plant response rating, Barnyardgrass [12, 16]: 80
